{"source": "patent US9943076B2", "about": "“Boron added cell cryopreservation medium” (YEDITEPE ÜNIVERSITESI, priority 2013, dated 2018)", "key": {"[1]": {"test_system": "human tooth germ stem cells", "procedure": "The intermediate concentrations to be applied on the cells were prepared in the cell culture medium and were applied on the human tooth germ stem cells."}, "[2]": {"test_system": "human tooth germ stem cells", "details": "FIG. 2", "procedure": "During the freezing process, different from the standard protocol, 20 μg/ml NaB was added to the cell cryopreservation medium. The control group was incubated by a standard cryopreservation medium. During freezing of the cells, different amounts of Me2SO (10%, 7%, 5% and 3% Me2SO) were added to the medium which contained 20% FBS (Fetal Bovine Serum) and 1% PSA (penicillin streptomycin amphotericin) in addition to 20 μg/ml NaB. Except for the group which was frozen for an extended period (6 months), the other cells were subjected to 4 repeating freeze-thaw processes. During each freezing process, one million cells were placed into one freezing tube and were frozen to −80° C. by using a freezing tank. The freezing tubes were transferred to −196° C. liquid nitrogen vapor one day later. After each freezing process, the cells were rapidly molten in a 37° C. water bath and viability analyses were performed with trypan blue."}, "[3]": {"test_system": "human tooth germ stem cells", "details": "20 μg/ml NaB + 5% Me2SO, thawed after long term freezing"}}}
{"substance": "sodium pentaborate pentahydrate [NaB]", "values": [{"measurement": "concentration at which toxic effect was observed", "setting": "[1]", "result": "≥ 200", "unit": "µg/mL"}, {"measurement": "toxic effect in cell viability analysis of frozen cells", "setting": "[2]; 20 μg/ml NaB in the presence of 5% Me2SO, repeatedly frozen cells and cells stored long term (6 months)", "result": "decreased toxic effect"}, {"measurement": "cell viability over repeated freeze-thaw processes", "setting": "[2]; 20 μg/ml NaB, 5% Me2SO in cryopreservation medium", "result": "started to increase during and after the second freeze-thaw process"}, {"measurement": "differentiation of the cells into chondrogenic lineage", "setting": "[3]", "result": "increase"}, {"measurement": "differentiation of the cells into odontogenic lineage", "setting": "[3]", "result": "increase"}, {"measurement": "stem cell differentiation into adipose tissue", "setting": "[3]", "result": "slight decrease"}, {"measurement": "differentiation potentials of the cells (staining and immunocytochemistry analyses)", "setting": "[3]; FIG. 3-4", "result": "no significant change"}]}
